Test [1] deals with T1, human recombinant GST cleaved CSNK1D (Homo sapiens, UniProt P48730).
T1 construct: GST (cleaved yes); purchased University of Dundee clone DU 19064
Nature of the test: Purified Enzyme Assay (ADP-Glo CSNK1D Kinase Assay). The note with it: 2 nM CSNK1D; peptide substrate 150 μM; ATP 20 μM; 45 minutes at room temperature. It counts as biochemical. As for the experimental part: In this assay, CSNK1D phosphorylates a substrate peptide PLSRTL-pS-VASLPGL in the presence of ATP. […] This assay monitors CSNK1D kinase activity by measuring the amount of ADP produced in the assay.
The substrate mix is added to each well of a low volume, 384-well, white opaque plate. Test compounds were diluted in HBSS and added in a dose-response to the plate.
The total volume of each reaction is 5 ul (2 μL of substrate mix, 1 μL of diluted compounds, and 2 μL of human recombinant CSNK1D). The plates are incubated for 45 minutes at room temperature.
ADP was quantified using the ADP-Glo™ Kinase Assay. ADP-Glo Reagent (5 μL) was added to each well. After a 1 hour incubation at room temperature, Kinase Detection Reagent (10 μL) was added to each well and incubated for 30 minutes. […] The raw data from the Envision is used to calculate percent activity.

A further test addresses T2, human CSNK1D (Homo sapiens, UniProt P48730).
T2 construct: expressed in transfected cells
The test can be described thus: Whole Cell nBRET CSNK1D Binding Assay. The note with it: living CHO cells stably expressing human CSNK1D tagged with nanoluciferase; NanoBret tracer 130 nM; 2 hours at 37 C.

Some results are limits rather than exact numbers.

The record followed here is US20230339970A1, “CASEIN KINASE 1 DELTA MODULATORS” (priority 2020, published 2023).

In general, IC50 refers to the point on the concentration scale where inhibition reaches its midpoint.

T2 sequence (P48730 whole entry): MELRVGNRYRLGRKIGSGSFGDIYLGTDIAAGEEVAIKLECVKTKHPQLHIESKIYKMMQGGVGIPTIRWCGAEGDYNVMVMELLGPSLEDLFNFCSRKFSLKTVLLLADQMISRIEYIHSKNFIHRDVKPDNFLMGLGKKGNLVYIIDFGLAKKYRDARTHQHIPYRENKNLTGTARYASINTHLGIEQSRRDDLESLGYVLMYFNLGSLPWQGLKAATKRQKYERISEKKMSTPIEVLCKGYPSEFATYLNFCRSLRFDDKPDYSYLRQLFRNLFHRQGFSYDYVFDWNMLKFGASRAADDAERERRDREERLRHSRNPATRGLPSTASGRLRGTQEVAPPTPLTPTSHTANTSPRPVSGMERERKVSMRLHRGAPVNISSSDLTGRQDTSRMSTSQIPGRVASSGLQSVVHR
T1 sequence (P48730 whole entry): as above

With `Fc1ccc(-c2nn3c(c2-c2ccnc4[nH]ncc24)CO[C@H](C2CC2)C3)nc1` (single isomer, unassigned) [Example 108, (*R)-6-Cyclopropyl-2-(5-fluoropyridin-2-yl)-3-(1H-pyrazolo[3,4-b]pyridin-4-yl)-6,7-dihydro-4H-pyrazolo[5,1-c][1,4]oxazine], the half-maximal inhibitory concentration (IC50) is 41 nM in test [1] and 681 nM on human CSNK1D.

In the case of `Fc1ccc(-c2nn3c(c2-c2ccnc4[nH]ncc24)CO[C@@H](C2CC2)C3)nc1` (single isomer, unassigned) [Example 109, (*S)-6-Cyclopropyl-2-(5-fluoropyridin-2-yl)-3-(1H-pyrazolo[3,4-b]pyridin-4-yl)-6,7-dihydro-4H-pyrazolo[5,1-c][1,4]oxazine], the IC50 in test [1] is 15 nM; at human CSNK1D, 301 nM.

Regarding `Fc1ccc(-c2nn3c(c2-c2ccnc4[nH]ncc24)CO[C@H](C2CCC2)C3)nc1` (single isomer, unassigned) [Example 110, (*R)-6-Cyclobutyl-2-(5-fluoropyridin-2-yl)-3-(1H-pyrazolo[3,4-b]pyridin-4-yl)-6,7-dihydro-4H-pyrazolo[5,1-c][1,4]oxazine], the IC50 in test [1] was 49 nM; on human CSNK1D it was 1170 nM.

For `Fc1ccc(-c2nn3c(c2-c2ccnc4[nH]ncc24)CO[C@@H](C2CCC2)C3)nc1` (single isomer, unassigned) [Example 111, (*S)-6-Cyclobutyl-2-(5-fluoropyridin-2-yl)-3-(1H-pyrazolo[3,4-b]pyridin-4-yl)-6,7-dihydro-4H-pyrazolo[5,1-c][1,4]oxazine], the results for the IC50 (in test [1]; on human CSNK1D) were 36 nM and 1070 nM, respectively.

As for `C[C@@H]1OCc2c(-c3ccnc4[nH]ncc34)c(-c3ccc(F)cc3)nn2[C@@H]1C` (single isomer, unassigned) [Example 113, (6*S,7*R)-2-(4-Fluorophenyl)-6,7-dimethyl-3-(1H-pyrazolo[3,4-b]pyridin-4-yl)-6,7-dihydro-4H-pyrazolo[5,1-c][1,4]oxazine], the IC50 in test [1] was 10 nM; at human CSNK1D, 113 nM.

Regarding `C[C@@H]1OCc2c(-c3ccnc4[nH]ncc34)c(-c3ccc(F)cc3)nn2[C@H]1C` (single isomer, unassigned) [Example 115, (6*S,7*S)-2-(4-Fluorophenyl)-6,7-dimethyl-3-(1H-pyrazolo[3,4-b]pyridin-4-yl)-6,7-dihydro-4H-pyrazolo[5,1-c][1,4]oxazine], the IC50 came out at 6 nM in test [1] and 74 nM on human CSNK1D.

Take `C[C@H]1OCc2c(-c3ccnc4[nH]ncc34)c(-c3ccc(F)cn3)nn2[C@H]1C` (single isomer, unassigned) [Example 116, (6*R,7*S)-2-(5-Fluoropyridin-2-yl)-6,7-dimethyl-3-(1H-pyrazolo[3,4-b]pyridin-4-yl)-6,7-dihydro-4H-pyrazolo[5,1-c][1,4]oxazine]: the IC50 in test [1] is 38 nM; on human CSNK1D, 926 nM.

As for `C[C@@H]1OCc2c(-c3ccnc4[nH]ncc34)c(-c3ccc(F)cn3)nn2[C@@H]1C` (single isomer, unassigned) [Example 117, (6*S,7*R)-2-(5-Fluoropyridin-2-yl)-6,7-dimethyl-3-(1H-pyrazolo[3,4-b]pyridin-4-yl)-6,7-dihydro-4H-pyrazolo[5,1-c][1,4]oxazine], the IC50 in test [1] was 45 nM; at human CSNK1D, 925 nM.

For the compound `CC[C@]1(C)Cn2nc(-c3ccc(F)cn3)c(-c3ccnc4[nH]ncc34)c2CO1` (single isomer, unassigned) [Example 169, (*R)-6-Ethyl-2-(5-fluoropyridin-2-yl)-6-methyl-3-(1H-pyrazolo[3,4-b]pyridin-4-yl)-6,7-dihydro-4H-pyrazolo[5,1-c][1,4]oxazine], the IC50 in test [1] was 4 nM; at human CSNK1D it was 134 nM.

With `CC[C@@]1(C)Cn2nc(-c3ccc(F)cn3)c(-c3ccnc4[nH]ncc34)c2CO1` (single isomer, unassigned) [Example 170, *S-6-Ethyl-2-(5-fluoropyridin-2-(l)-6-methyl-3-(1H-pyrazolo[3,4-b]pyridin-4-yl)-6,7-dihydro-4H-pyrazolo[5,1-c][1,4]oxazine], the concentration for half-maximal inhibition (IC50) in test [1] stood at 2 nM; at human CSNK1D, 42 nM.

Turning to `C[C@@H]1n2nc(-c3ccc(F)cc3)c(-c3ccnc4[nH]ncc34)c2COC1(C)C` (single isomer, unassigned) [Example 171], the IC50 in test [1] was determined as 1 nM; on human CSNK1D, 6 nM.

Consider `C[C@H]1n2nc(-c3ccc(F)cc3)c(-c3ccnc4[nH]ncc34)c2COC1(C)C` (single isomer, unassigned) [Example 172], for which the 50% inhibitory concentration (IC50) came to 5 nM in test [1] and 54 nM at human CSNK1D.

In the case of `C[C@H]1n2nc(-c3ccc(F)cn3)c(-c3ccnc4[nH]ncc34)c2COC1(C)C` (single isomer, unassigned) [Example 173, (*R)-2-(5-Fluoropyridin-2-yl)-6,6,7-trimethyl-3-(1H-pyrazolo[3,4-b]pyridin-4-yl)-6,7-dihydro-4H-pyrazolo[5,1-c][1,4]oxazine], the 50% inhibitory concentration (IC50) in test [1] came to 42 nM; at human CSNK1D it was 840 nM.

As to `CC1n2nc(-c3ccc(F)cn3)c(-c3ccnc4[nH]ncc34)c2COC1(C)C` (single isomer, unassigned) [Example 174, (*S)-2-(5-Fluoropyridin-2-yl)-6,6,7-trimethyl-3-(1H-pyrazolo[3,4-b]pyridin-4-yl)-6,7-dihydro-4H-pyrazolo[5,1-c][1,4]oxazine], the IC50 in test [1] stood at 8 nM; at human CSNK1D it was 114 nM.

As for `C[C@@]1(C(F)(F)F)Cn2nc(-c3ccc(F)cn3)c(-c3ccnc4[nH]ncc34)c2CO1` (single isomer, unassigned) [Example 177, (*S)-2-(5-Fluoropyridin-2-yl)-6-methyl-3-(1H-pyrazolo[3,4-b]pyridin-4-yl)-6-(trifluoromethyl)-6,7-dihydro-4H-pyrazolo[5,1-c][1,4]oxazine], the values for the 50% inhibitory concentration (IC50) (in test [1]; on human CSNK1D) were 3 nM and 44 nM, respectively.

Turning to `C[C@]1(C(F)(F)F)Cn2nc(-c3ccc(F)cn3)c(-c3ccnc4[nH]ncc34)c2CO1` (single isomer, unassigned) [Example 178, (*R)-2-(5-Fluoropyridin-2-yl)-6-methyl-3-(1H-pyrazolo[3,4-b]pyridin-4-yl)-6-(trifluoromethyl)-6,7-dihydro-4H-pyrazolo[5,1-c][1,4]oxazine], the figures for the IC50 (in test [1]; on human CSNK1D) were 77 nM and 1000 nM, respectively.

Regarding `Cc1cc(-c2c(-c3ccc(F)cn3)nn3c2CO[C@](C)(C(F)(F)F)C3)c2cn[nH]c2n1` (single isomer, unassigned) [Example 179, (*S)-2-(5-Fluoropyridin-2-yl)-6-methyl-3-(6-methyl-1H-pyrazolo[3,4-b]pyridin-4-yl)-6-(trifluoromethyl)-6,7-dihydro-4H-pyrazolo[5,1-c][1,4]oxazine], the IC50 came out at 3 nM in test [1] and 15 nM at human CSNK1D.

Turning to `Cc1cc(-c2c(-c3ccc(F)cn3)nn3c2CO[C@@](C)(C(F)(F)F)C3)c2cn[nH]c2n1` (single isomer, unassigned) [Example 180, (*R)-2-(5-Fluoropyridin-2-yl)-6-methyl-3-(6-methyl-1H-pyrazolo[3,4-b]pyridin-4-yl)-6-(trifluoromethyl)-6,7-dihydro-4H-pyrazolo[5,1-c][1,4]oxazine], the IC50 in test [1] was found to be 54 nM; at human CSNK1D, 252 nM.

As to `Cc1cc(-c2c(-c3ccc(F)cc3)nn3c2OC[C@@H](C)C3)c2cn[nH]c2n1` (single isomer, unassigned) [Example 193, (*S)-2-(4-Fluorophenyl)-6-methyl-3-(6-methyl-1H-pyrazolo[3,4-b]pyridin-4-yl)-6,7-dihydro-5H-pyrazolo[5,1-b][1,3]oxazine], the half-inhibitory concentration (IC50) was < 0.5 nM in test [1] and 5 nM on human CSNK1D.

As for `Cc1cc(-c2c(-c3ccc(F)cc3)nn3c2OC[C@H](C)C3)c2cn[nH]c2n1` (single isomer, unassigned) [Example 194, (*R)-2-(4-Fluorophenyl)-6-methyl-3-(6-methyl-1H-pyrazolo[3,4-b]pyridin-4-yl)-6,7-dihydro-5H-pyrazolo[5,1-b][1,3]oxazine], the half-inhibitory concentration (IC50) in test [1] was 1 nM; at human CSNK1D it was 11 nM.

As for `CC1CCn2nc(-c3ccc(F)cn3)c(-c3ccnc4[nH]ncc34)c2O1` (single isomer, unassigned) [Example 198, (*S)-2-(5-Fluoro-2-pyridyl)-5-methyl-3-(1H-pyrazolo[3,4-b]pyridin-4-yl)-6,7-dihydro-5H-pyrazolo[5,1-b][1,3]oxazine], the values for the IC50 (in test [1]; on human CSNK1D) were 3 nM and 59 nM, respectively.

On to `C[C@@H]1CCn2nc(-c3ccc(F)cn3)c(-c3ccnc4[nH]ncc34)c2O1` (single isomer, unassigned) [Example 199, (*R)-2-(5-Fluoro-2-pyridyl)-5-methyl-3-(1H-pyrazolo[3,4-b]pyridin-4-yl)-6,7-dihydro-5H-pyrazolo[5,1-b][1,3]oxazine], for which the IC50 in test [1] was found to be 12 nM; at human CSNK1D it was 186 nM.

With `Cc1cc(-c2c(-c3ccc(F)cn3)nn3c2OC(C)CC3)c2cn[nH]c2n1` (single isomer, unassigned) [Example 200, (*S)-2-(5-Fluoro-2-pyridyl)-5-methyl-3-(6-methyl-1H-pyrazolo[3,4-b]pyridin-4-yl)-6,7-dihydro-5H-pyrazolo[5,1-b][1,3]oxazine], the half-inhibitory concentration (IC50) in test [1] worked out at 4 nM; on human CSNK1D, 56 nM.
